Columns and labels:
Assay type in all cases: cell-based
[1] = system: E. coli BL21; assay: MIC against Gram-negative bacteria: E. coli BL21; details: 5×10^5 CFU/mL
Summary of the method: (§1)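 Read-out is absence of bacterial growth, with MIC set at the lowest recombinant protein concentration achieving it. Bacteria, pre-grown in LB to McFarland 0.5 and resuspended, were exposed at 5×10^5 CFU/mL to two-fold diluted human EGF domain proteins in triplicate at 37° C, 175 rpm.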

[2] = system: Proteus vulgaris; assay: MIC against Gram-negative bacteria: Proteus vulgaris; details: 5×10^5 CFU/mL
Summary of the method: as §1

[3] = system: E. coli DH5α; assay: Antibacterial activity: MIC and growth curve against E. coli DH5α in 96-well plate; details: minimal inhibitory concentration against E. coli DH5α; 96-well plate, 5×10^5 CFU/mL, 37° C., judged after 8 h
Summary of the method: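 Log-phase DH5α (OD600 about 0.5, 37° C, 185 rpm in LB) was pelleted, resuspended in fresh LB and seeded at 5×10^5 CFU/mL with recombinant protein at 50, 25 and 12.5 μg/mL (two-fold series), in triplicate. Plates were shaken at 175 rpm, 37° C, and OD600 was read every 30 min. MIC was the lowest concentration with no growth.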

[4] = system: Serratia marcescens; assay: MIC against Gram-negative bacteria: Serratia marcescens; details: 5×10^5 CFU/mL
Summary of the method: as §1

[5] = system: Aeromonas hydrophila; assay: MIC against Gram-negative bacteria: Aeromonas hydrophila; details: 5×10^5 CFU/mL
Summary of the method: as §1

[6] = system: Pseudomonas aeruginosa; assay: MIC against Gram-negative bacteria: Pseudomonas aeruginosa; details: 5×10^5 CFU/mL
Summary of the method: as §1

[7] = system: Klebsiella pneumonia; assay: MIC against Gram-negative bacteria: Klebsiella pneumonia; details: 5×10^5 CFU/mL
Summary of the method: as §1

[8] = system: Moraxella catarrhalis; assay: MIC against Gram-negative bacteria: Moraxella catarrhalis; details: 5×10^5 CFU/mL
Summary of the method: as §1

[9] = system: Citrobacter diversus; assay: MIC against Gram-negative bacteria: Citrobacter diversus; details: 5×10^5 CFU/mL
Summary of the method: as §1

[10] = system: Proteus mirabilis; assay: MIC against Gram-negative bacteria: Proteus mirabilis; details: 5×10^5 CFU/mL
Summary of the method: as §1

[11] = system: Enterobacter cloacae; assay: MIC against Gram-negative bacteria: Enterobacter cloacae; details: 5×10^5 CFU/mL
Summary of the method: as §1

[12] = E. coli BL21, 10 h cultivation at 37° C.
[13] = Proteus vulgaris, 10 h cultivation at 37° C.
[14] = Serratia marcescens, 10 h cultivation at 37° C.
[15] = Aeromonas hydrophila, 10 h cultivation at 37° C.
[16] = Pseudomonas aeruginosa, 10 h cultivation at 37° C.
[17] = Klebsiella pneumonia, 10 h cultivation at 37° C.
[18] = Moraxella catarrhalis, 10 h cultivation at 37° C.
[19] = Citrobacter diversus, 10 h cultivation at 37° C.
[20] = Proteus mirabilis, 10 h cultivation at 37° C.
[21] = Enterobacter cloacae, 10 h cultivation at 37° C.
[22] = P. vulgaris, 10 h cultivation at 37° C.
[23] = S. marcescens, 10 h cultivation at 37° C.
[24] = A. hydrophila, 10 h cultivation at 37° C.
[25] = P. aeruginosa, 10 h cultivation at 37° C.
[26] = K. pneumonia, 10 h cultivation at 37° C.
[27] = M. catarrhalis, 10 h cultivation at 37° C.
[28] = C. diversus, 10 h cultivation at 37° C.
[29] = P. mirabilis, 10 h cultivation at 37° C.
[30] = E. cloacae, 10 h cultivation at 37° C.

PRT1414 (EVDCMDPTCSGRGVCVRGECHCSVGWGGTNCE; listed as Homo sapiens)
MIC against E. coli BL21 [1, 12]: 12.5 µg/mL
MIC against P. vulgaris [2, 13]: 12.5 µg/mL
MIC [3]: 50 µg/mL
MIC against S. marcescens [4, 14]: 25 µg/mL
MIC against A. hydrophila [5, 15]: 12.5 µg/mL
MIC against P. aeruginosa [6, 16]: 50 µg/mL
MIC against K. pneumonia [7, 17]: 12.5 µg/mL
MIC against M. catarrhalis [8, 18]: 50 µg/mL
MIC against C. diversus [9, 19]: 12.5 µg/mL
MIC against P. mirabilis [10, 20]: 12.5 µg/mL
MIC against E. cloacae [11, 21]: 50 µg/mL

PRT495 (CDCDLRGTSGDACNLEQGLCGCVEETGACPCKENVFGPQCNECREGTFALRADNPLGCSP; listed as Homo sapiens)
MIC against E. coli BL21 ([1]; 96-well plate, 37° C., 10 h): 50 µg/mL
MIC against P. vulgaris ([2]; 96-well plate, 37° C., 10 h): 12.5 µg/mL
MIC [3]: 25 µg/mL
MIC against S. marcescens ([4]; 96-well plate, 37° C., 10 h): 25 µg/mL
MIC against A. hydrophila ([5]; 96-well plate, 37° C., 10 h): 50 µg/mL
MIC against P. aeruginosa ([6]; 96-well plate, 37° C., 10 h): 25 µg/mL
MIC against K. pneumonia ([7]; 96-well plate, 37° C., 10 h): 12.5 µg/mL
MIC against M. catarrhalis ([8]; 96-well plate, 37° C., 10 h): 12.5 µg/mL
MIC against C. diversus ([9]; 96-well plate, 37° C., 10 h): 25 µg/mL
MIC against P. mirabilis ([10]; 96-well plate, 37° C., 10 h): 25 µg/mL
MIC against E. cloacae ([11]; 96-well plate, 37° C., 10 h): 25 µg/mL

PRT253 (DYCSQNTCLNGGKCSWTHGAGYVCKCPPQFSGKHCE; listed as Homo sapiens)
MIC (μg/mL) E. coli BL21 [1, 12]: 25 µg/mL
MIC (μg/mL) P. vulgaris [2, 22]: 25 µg/mL
MIC [3]: 12.5 µg/mL
MIC (μg/mL) S. marcescens [4, 23]: 12.5 µg/mL
MIC (μg/mL) A. hydrophila [5, 24]: 25 µg/mL
MIC (μg/mL) P. aeruginosa [6, 25]: 12.5 µg/mL
MIC (μg/mL) K. pneumonia [7, 26]: 25 µg/mL
MIC (μg/mL) M. catarrhalis [8, 27]: 25 µg/mL
MIC (μg/mL) C. diversus [9, 28]: 12.5 µg/mL
MIC (μg/mL) P. mirabilis [10, 29]: 12.5 µg/mL
MIC (μg/mL) E. cloacae [11, 30]: 12.5 µg/mL

PRT764 (AQDKCALGTHGCQHICVNDRTGSHHCECYEGYTLNADKKTCS; listed as Homo sapiens)
MIC (μg/mL) E. coli BL21 [1, 12]: 25 µg/mL
MIC (μg/mL) P. vulgaris [2, 22]: 25 µg/mL
MIC [3]: 12.5 µg/mL
MIC (μg/mL) S. marcescens [4, 23]: 50 µg/mL
MIC (μg/mL) A. hydrophila [5, 24]: 12.5 µg/mL
MIC (μg/mL) P. aeruginosa [6, 25]: 50 µg/mL
MIC (μg/mL) K. pneumonia [7, 26]: 100 µg/mL
MIC (μg/mL) M. catarrhalis [8, 27]: 12.5 µg/mL
MIC (μg/mL) C. diversus [9, 28]: 50 µg/mL
MIC (μg/mL) P. mirabilis [10, 29]: 25 µg/mL
MIC (μg/mL) E. cloacae [11, 30]: 50 µg/mL

PRT71 (VDACHLNPCENMGACVRSPGSPQGYVCECGPSHYGPYCE; listed as Homo sapiens)
MIC (μg/mL) E. coli BL21 ([1]; E. coli BL21, 96-well plate, 37° C., 10 h): 25 µg/mL
MIC (μg/mL) P. vulgaris ([2]; Proteus vulgaris, 96-well plate, 37° C., 10 h): 12.5 µg/mL
MIC [3]: 50 µg/mL
MIC (μg/mL) S. marcescens ([4]; Serratia marcescens, 96-well plate, 37° C., 10 h): 12.5 µg/mL
MIC (μg/mL) A. hydrophila ([5]; Aeromonas hydrophila, 96-well plate, 37° C., 10 h): 25 µg/mL
MIC (μg/mL) P. aeruginosa ([6]; Pseudomonas aeruginosa, 96-well plate, 37° C., 10 h): 12.5 µg/mL
MIC (μg/mL) K. pneumonia ([7]; Klebsiella pneumonia, 96-well plate, 37° C., 10 h): 25 µg/mL
MIC (μg/mL) M. catarrhalis ([8]; Moraxella catarrhalis, 96-well plate, 37° C., 10 h): 50 µg/mL
MIC (μg/mL) C. diversus ([9]; Citrobacter diversus, 96-well plate, 37° C., 10 h): 12.5 µg/mL
MIC (μg/mL) P. mirabilis ([10]; Proteus mirabilis, 96-well plate, 37° C., 10 h): 12.5 µg/mL
MIC (μg/mL) E. cloacae ([11]; Enterobacter cloacae, 96-well plate, 37° C., 10 h): 50 µg/mL

PRT1464 (CNCDKTGTINGSLLCNKSTGQCPCKLGVTGLRCNQCEPHRYNLTIDNFQHCQM; listed as Homo sapiens)
MIC against E. coli BL21 [1, 12]: 25 µg/mL
MIC against P. vulgaris [2, 13]: 25 µg/mL
MIC [3]: 12.5 µg/mL
MIC against S. marcescens [4, 14]: 50 µg/mL
MIC against A. hydrophila [5, 15]: 12.5 µg/mL
MIC against P. aeruginosa [6, 16]: 12.5 µg/mL
MIC against K. pneumonia [7, 17]: 12.5 µg/mL
MIC against M. catarrhalis [8, 18]: 12.5 µg/mL
MIC against C. diversus [9, 19]: 12.5 µg/mL
MIC against P. mirabilis [10, 20]: 12.5 µg/mL
MIC against E. cloacae [11, 21]: 12.5 µg/mL

PRT1384 (STRTCPRDCRGRGRCEDGECICDTGYSGDDC; listed as Homo sapiens)
MIC against E. coli BL21 [1, 12]: 12.5 µg/mL
MIC against P. vulgaris [2, 13]: 50 µg/mL
MIC [3]: 25 µg/mL
MIC against S. marcescens [4, 14]: 25 µg/mL
MIC against A. hydrophila [5, 15]: 25 µg/mL
MIC against P. aeruginosa [6, 16]: 25 µg/mL
MIC against K. pneumonia [7, 17]: 50 µg/mL
MIC against M. catarrhalis [8, 18]: 12.5 µg/mL
MIC against C. diversus [9, 19]: 25 µg/mL
MIC against P. mirabilis [10, 20]: 25 µg/mL
MIC against E. cloacae [11, 21]: 25 µg/mL

— patent US9833497B2, “Human originated EGF domain proteins and use of the same” (CHENGDU SOURCEBIO LIMITED-LIABILITY COMPANY, priority 2013, dated 2017)
